Where two headings read alike, the source gives them in different places.
Legend:
[1] = biological target: T1, UGT2B15 (Homo sapiens, UniProt P54855); experiment: Inhibition of S-oxazepam glucuronidation in rUGT2B15 homogenate/microsomes (UGT-overexpressing HEK293); type: biochemical; details: for IC50: rUGT2B15
T1 construct: expressed in transfected cells; cell homogenate
T1 sequence (P54855 24-530): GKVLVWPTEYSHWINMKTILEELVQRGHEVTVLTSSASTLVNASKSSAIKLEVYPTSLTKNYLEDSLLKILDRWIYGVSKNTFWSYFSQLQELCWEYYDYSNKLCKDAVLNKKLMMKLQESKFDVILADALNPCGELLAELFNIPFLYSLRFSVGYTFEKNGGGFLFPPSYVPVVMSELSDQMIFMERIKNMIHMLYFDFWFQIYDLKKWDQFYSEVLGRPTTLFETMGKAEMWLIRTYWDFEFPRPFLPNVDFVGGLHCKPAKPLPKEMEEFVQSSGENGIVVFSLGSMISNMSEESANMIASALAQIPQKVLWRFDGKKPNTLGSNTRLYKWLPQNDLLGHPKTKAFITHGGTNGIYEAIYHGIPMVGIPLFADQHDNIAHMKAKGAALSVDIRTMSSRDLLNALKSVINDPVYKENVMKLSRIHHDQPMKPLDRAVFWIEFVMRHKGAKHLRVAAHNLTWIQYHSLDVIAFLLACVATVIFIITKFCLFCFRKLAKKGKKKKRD
Procedure: (§1) Human embryonic kidney cells (HEK293) stably overexpressing the single UGTs 1A9, 2B7, and 2B15 have been previously established and described. Cells were grown in DMEM supplemented with 350 μg/mL of geneticin and 10% FBS and harvested in PBS. Microsomal fractions of UGT-overexpressing cell lines were prepared by differential centrifugation using previously described protocols. Briefly, cell homogenates were prepared by resuspending pelleted cells in PBS, followed by five rounds of freeze–thaw cycles prior to homogenization. Recombinant microsomes (rUGTs) were prepared by centrifuging the cell homogenate at a low speed (9000× g for 30 min) followed by ultracentrifugation (34,000× g for 60 min), with the total protein subsequently determined using a BCA assay. Recombinant microsomes (UGT1A9 and 2B7) and homogenates (UGT2B15) were used for inhibition studies.
(§2) A Waters Corp BEH C18 Acquity UPLC column (1.7 µM, 2.1 × 100 mm) was used at a constant temperature of 40 °C for chromatographic separation. An elution gradient was used for 6.5 min with mobile phases A (5 mM ammonium formate) and B (100% methanol) under the following conditions: 90% A for 0.5 min, followed by a linear gradient for 3 min to 60% A, 1 min at 5% A, and re-equilibration for 1 min at 90% A.
(§3) The reaction was initiated by the addition of 4 mM UDPGA as the cofactor and incubated for 2 h at 37 °C. The reaction was terminated by adding 30 µL of an ice-cold stop solution (acetonitrile/methanol; 1:1). The reaction mixtures were centrifuged at 17,000× g for 30 min at 4 °C, and the supernatant was transferred to UPLC sample glass vial for analysis using UPLC–MS/MS (described above). […] As a positive control for inhibition assays, ketoconazole (10 μM and 100 µM) was used as a potential inhibitor of the UGTs 1A9, 2B7, and 2B15. Reactions containing only the cannabinoid vehicle (3% methanol) and without any inhibitor (cannabinoids) were used as a baseline reaction for 100% enzyme activity, while a reaction without UDPGA was used as a negative control. All experiments were performed in three independent experiments.
(§4) Determination of IC50 and Ki Values. […] The nonspecific binding constants (fu,inc) for cannabinoids in HEK293 microsomes, HLM, and HKM were previously determined and used to calculate the inhibition by unbound (‘free’) cannabinoid in each reaction. A nonlinear regression analysis and the following equation were used to calculate the IC50 values:(1) y = Bottom +Top − Bottom / 1 + 10^x − LogIC50A where ‘Bottom’ is the maximum observed inhibition (lowest percent activity) and ‘Top’ is the minimum observed inhibition (highest percent activity) for a given cannabinoid.

[2] = cited from earlier work
[3] = cited from earlier work; remark: listed apart in the source
[4] = biological target: T2, UGT1A9 (Homo sapiens, UniProt O60656); experiment: Inhibition of R-oxazepam glucuronidation in rUGT1A9 microsomes (UGT-overexpressing HEK293); type: biochemical; details: for IC50: rUGT1A9
T2 construct: expressed in transfected cells; microsomal fraction
T2 sequence (O60656 26-530): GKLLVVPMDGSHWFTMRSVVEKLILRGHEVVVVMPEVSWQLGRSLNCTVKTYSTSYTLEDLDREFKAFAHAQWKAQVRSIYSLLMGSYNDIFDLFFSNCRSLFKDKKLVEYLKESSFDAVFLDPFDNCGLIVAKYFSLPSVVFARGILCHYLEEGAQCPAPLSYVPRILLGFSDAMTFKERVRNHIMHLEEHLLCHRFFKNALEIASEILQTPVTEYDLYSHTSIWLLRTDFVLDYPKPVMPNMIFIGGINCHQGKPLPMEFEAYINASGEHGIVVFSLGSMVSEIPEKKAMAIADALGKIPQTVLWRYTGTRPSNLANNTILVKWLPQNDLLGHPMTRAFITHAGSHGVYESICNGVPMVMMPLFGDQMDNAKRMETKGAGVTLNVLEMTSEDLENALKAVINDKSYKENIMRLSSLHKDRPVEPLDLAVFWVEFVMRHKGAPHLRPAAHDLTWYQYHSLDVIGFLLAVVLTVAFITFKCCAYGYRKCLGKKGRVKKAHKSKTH
Procedure: as §1, §2, §3, §4

[5] = IC50 corrected with fu,inc, read-out: IC50,u, S-Oxazepam Glucuronide
[6] = read-out: IC50, S-Oxazepam Glucuronide
[7] = overexpressing HEK293 cell lines
[8] = IC50 corrected with fu,inc, read-out: IC50,u, R-Oxazepam Glucuronide
[9] = rUGT1A9 microsomes, 100 µM cannabinoid, vs control without cannabinoid
[10] = read-out: IC50, R-Oxazepam Glucuronide

Molecule | IC50 [1, 5] | IC50 [1, 6] | unbound fraction (fu,inc) ([2]; incubation mixtures with HKM) | unbound fraction (fu,inc) ([2]; incubation mixtures with HLM) | unbound fraction (fu,inc) [2, 7] | Cmax ([3]; THC dose 20 mg, oral) | Cmax ([3]; THC dose 25 mg, inhalation) | Cmax ([3]; THC dose 70 mg, inhalation) | Cmax ([3]; THC dose 100 mg, inhalation) | Cmax ([3]; THC dose 130 mg, oral) | Cmax ([3]; THC dose 160 mg, oral) | Cmax ([3]; after smoking) | Cmax ([3]; oral ingestion of 50 mg THC) | IC50 [4, 8] | Inhibition of R-oxazepam glucuronide formation [4, 9] | IC50 [4, 10] | also measured
CCCCCc1cc(O)c2c(c1)OC(C)(C)[C@@H]1CCC(C)=C[C@@H]21 [THC, Δ^9-tetrahydrocannabinol] | 840 ± 420 nM | 20000 ± 10000 nM | 0.052 ± 0.005 | 0.048 ± 0.002 | 0.042 ± 0.003 | 30 nM | 250 nM | 700 nM | 990 nM | 200 nM | 240 nM | 640 nM | 530 nM | 500 ± 310 nM | 83% |  | Cmax ([3]; smoking cannabis cigarettes with 3.55% THC): 515 nM
C=C(C)[C@@H]1CCC(C)=C[C@H]1c1c(O)cc(CCCCC)cc1O [CBD, cannabidiol] | 2000 ± 350 nM | 54000 ± 9000 nM | 0.062 ± 0.009 | 0.051 ± 0.008 | 0.038 ± 0.002 |  |  |  |  |  |  |  |  | 53 ± 11 nM |  | 1400 ± 290 nM | inhibition at 2 h, 10 µM ([1]; human, pH 7.4, rUGT2B15 microsomes, 10 µM cannabinoid, range over the four cannabinoids, read-out: Inhibition of S-oxazepam glucuronide formation): 40 to 66%; inhibition at 2 h, 100 µM ([1]; human, pH 7.4, rUGT2B15 microsomes, 100 µM cannabinoid, range over the four cannabinoids, read-out: Inhibition of S-oxazepam glucuronide formation): 83 to 91%; Cmax ([3]; 1500 mg dose of CBD following a high-fat diet): 4400 nM; Cmax ([3]; CBD 2 mg, inhalation): 6.4 nM; Cmax ([3]; CBD 19 mg, inhalation): 350 nM; Cmax ([3]; CBD 70 mg, oral): 89 nM; Cmax ([3]; CBD 700 mg, oral): 890 nM; Cmax ([3]; CBD 2000 mg, oral): 2500 nM; inhibition at 2 h, 10 µM ([4]; human, pH 7.4, rUGT1A9 microsomes, 10 µM cannabinoid, vs control without cannabinoid, read-out: Inhibition of R-oxazepam glucuronide formation): 98%; inhibition at 2 h, 100 µM ([4]; human, pH 7.4, rUGT1A9 microsomes, 100 µM cannabinoid, vs control without cannabinoid, read-out: Inhibition of R-oxazepam glucuronide formation): 99%
11-hydroxy-Δ^9-tetrahydrocannabinol [11-OH-THC] | 4500 ± 2100 nM | 58000 ± 27000 nM | 0.094 ± 0.014 | 0.094 ± 0.014 | 0.078 ± 0.042 | 15 nM | 12 nM | 32 nM | 46 nM | 100 nM | 120 nM | 90 nM | 160 nM | 1000 ± 600 nM | 87% | 13000 ± 7700 nM | 

From publication PMC10892093 (Pharmaceutics, 2024)
